Experiments:
MCF-7 cells = experiment: SiNW-ECIS impedance and capacitance measurement of drug-treated MCF-7 cells; format: cell-based, human; details: for change of norm in impedance of treated cells, T1 vs. T2: 2 hours vs. 6 hours after drug incubation; for norm of capacitive changes, control sample more than treated sample: 6 hours after drug incubation (T2)
Experimental: In this example, the diagnostic response of cells membrane to extremely low dose of antitubulin drugs is investigated. Initially, MCF-7 cell lines, isolated from grade I human breast tumors, were obtained from the National Cell Bank of Iran (Pasteur Institute). Then, cells were maintained in a CO2 incubator (37° C., 5% CO2) in RPMI-1640 medium supplemented with 5% fetal bovine serum, and 1% penicillin/streptomycin. The fresh medium was replaced every other day. Then, the cultured cells were dropped on the surface of the SiNW-ECIS, designed and fabricated pursuant to teachings of the present application. Prior to each experiment, cells were trypsinized to be detached from the substrate and resuspended on the SiNW surface. To minimize the effect of trypsinization, the procedure may last for less than 4 minutes at room temperature of about 20° C. The samples were held in an incubator for about 4 hours to achieve cells attachment on the SiNWs. Thereafter, the ABZ drug with low concentrations of about 2.1 nano-moles per liter and the PTX drug with low concentrations of about 0.1 nano-moles per liter were added to individual samples. Finally, the signal recording and biological assays were investigated about 2 hours and 6 hours after the drug treatment (6 hours and 10 hours after the beginning of culturing process).
Referring to FIGS. 12A-12G, comparative normalized diagrams of impedance (designated by ΔZ % and represented by solid black lines) and capacitance changes (designated by ΔC % and represented by dashed grey lines) are illustrated for MCF-7 cells seeded on SiNW electrodes after treating by 2.1 nano-moles per liter of ABZ and 0.1 nano-moles per liter of PTX. The time interval between the drug incubation and the signal extraction are 2 hours (designated by T1) and 6 hours (designated by T2). In addition, the same diagrams are plotted for control sample prepared with no drug treatment stage.
According to the method described in the present example, the samples were maintained in an incubator so that the signal extraction was repeated 10 hours after cells dropping (6 hours after drug incubation for treated samples) to monitor the time evolution of drug induced MT polymerization/depolymerization on bioelectrical response of the membrane.

[1] = test system: tubulin assemblies of MCF-7 cells; experiment: Confocal microscopy of tubulin assemblies of MCF-7 cells; format: cell-based, human
Experimental: In addition, an un-treated control sample was prepared as reference for comparison. Then, samples were washed with PBS and permeabilized with microtubule stabilizing buffer [80 mM PIPES-KOH (pH 6.8), 5 mM EGTA, and 1 mM MgCl2 containing 0.5% Triton X-100] for 5 min at room temperature before being fixed with chilled absolute methanol for 10 min at −20° C. Thereafter, the fixed cells were washed and incubated with monoclonal mouse anti-α-tubulin antibody (Sigma Co.) for 1 hour at room temperature followed by incubation with FITC-conjugated antimouse IgG antibody (Santa Cruz Biotechnology). The stained cells were mounted with Vectashield (Vector Laboratories, Burlingame, Calif.) and observed by confocal microscopy.

[2] = MCF-7, ABZ 2.1 nano-moles per liter, 2 hours after drug incubation (T1)
[3] = MCF-7, ABZ 2.1 nano-moles per liter
[4] = MCF-7, PTX 0.1 nano-moles per liter, 2 hours after treatment (T1)
[5] = MCF-7, PTX 0.1 nano-moles per liter

Row | SMILES | changes in membrane impedance versus control (MCF-7 cells; [2]) [%] | variations in capacitance of the sensor versus control (MCF-7 cells; [2]) [%] | change of norm in impedance of treated cells, T1 vs. T2 (MCF-7 cells; [3]) | norm of capacitive changes, control sample more than treated sample (MCF-7 cells; [3]) | spindle / microtubule morphology (confocal image) ([1]; MCF-7, ABZ 2.1 nano-moles per liter, 2 hours after treatment) | spindle / microtubule morphology (confocal image) ([1]; MCF-7, ABZ 2.1 nano-moles per liter, 6 hours after treatment) | variation in mean capacitance of the sensor versus control (MCF-7 cells; [4]) | variation in mean impedance of the sensor versus control (MCF-7 cells; [4]) | change of norm in impedance of treated cells, T1 vs. T2 (MCF-7 cells; [5]) [%] | norm of capacitive changes, control sample more than treated sample (MCF-7 cells; [5]) [%] | spindle / microtubule morphology (confocal image) ([1]; MCF-7, PTX 0.1 nano-moles per liter, 2 hours after treatment) | spindle / microtubule morphology (confocal image) ([1]; MCF-7, PTX 0.1 nano-moles per liter, 6 hours after treatment)
1 | CCCSc1ccc2nc(NC(=O)OC)[nH]c2c1 [ABZ, Albendazole] | 25 | 70 | about 60% | about 90% | abnormally reduced numbers of spindles or monopolar (monoaster) spindles | monoastered MTs are observable |  |  |  |  |  | 
2 | CC(=O)O[C@H]1C(=O)[C@@]2(C)[C@H]([C@H](OC(=O)c3ccccc3)[C@]3(O)C[C@H](OC(=O)[C@H](O)[C@@H](NC(=O)c4ccccc4)c4ccccc4)C(C)=C1C3(C)C)[C@]1(OC(C)=O)CO[C@@H]1C[C@@H]2O [PTX, Paclitaxel] |  |  |  |  |  |  | about 60% | about 50% | 15 | ~75 | aggregated spindles | increased aggregation in MT spindles
